Data as given in US7098195B2, “Fluorinated glucosamine analogs useful for modulating post-translational glycosylations on cells” (Health Research, Inc., priority 2001, dated 2006).

What was measured:
HECA-452 epitopes = assay: Flow cytometric analysis of HECA-452 epitopes on human T-lymphocytes; format: cell-based; settings: CLA^low T-cells or PBL after bromelain digestion
Method: Only positive cells, which were those cells with fluorescence above background autofluorescence and fluorochrome-conjugated secondary Ab staining, were analyzed.
For analysis of CLA expression on T-cells treated with glycoconjugate modifiers, CLA^+ T-cells were first pretreated with neuraminidase (0.1 U/ml at 37° C. for 1 h) to eliminate functional CLA and cleave all HECA-452 reactive epitopes from the cell surface (35–38). Since we wanted to investigate whether these compounds directly affected CLA expression and function, neuraminidase pretreatment followed by incubations with glycosylation modifiers allowed for examination of de novo synthesized CLA/HECA-452 epitopes re-expressed on the cell surface. After neuraminidase digestion, cells were then incubated with tunicamycin (0.02 mM) (an inhibitor of GlcNAc phosphotransferase, the initial step of N-glycosylation), swainsonine (0.23 mM) (an inhibitor of α-mannosidase II and complex-type N-glycosylation), 4-F-GlcNAc (0.05 mM) (putative inhibitor of poly-N-acetyllactosamine biosynthesis), BAG (an inhibitor of O-glycan biosynthesis) (<2 mM) or GlcNAc (5 mM) (negative control, naturally-occurring metabolic counterpart of 4-F-GlcNAc)for 30 h in the presence of human recombinant IL-2. […] Concentrations for BAG were selected based on maximal O-glycosylation inhibitory effects at non-growth inhibitory concentrations as previously reported (39). To determine a suitable concentration of 4-F-GlcNAc for examining glycoconjugate-modifying effects without influencing cell growth or protein synthesis, we performed preliminary growth inhibitory experiments of cells incubated with 4-F-GlcNAc for 2 cell doublings (˜36 h) at 37° C. (cell viability assessed by Trypan-blue exclusion).
Flow cytometric analysis was performed on human leukocytes utilizing both direct and indirect immunofluorescence staining approaches. All cells utilized for these experiments were washed twice with cold PBS/2%FBS and suspended at 10^7/ml PBS/1% FBS. Primary antibodies, anti-CLA (HECA-452), -CD4, -CD8, CD43 (L60) and PSGL-1 (PL-2) along with the appropriate isotype-matched control antibodies were incubated with the cells for 30 min on ice. Following two washes with PBS/2%FBS, cells were resuspended in PBS/1%FBS and fluorochrome-conjugated secondary antibodies (2 μl) and incubated for 30 min on ice.

[1] = test system: P-selectin ligand activity of CLA+ T-lymphocytes; assay: Parallel-plate flow chamber, CLA+ T-cell tethering and rolling on P-selectin chimera; format: cell-based, human; settings: 0.1% for 1 h at 37° C.
Method: (§1) To analyze the affects of 4-F-GlcNAc on the function of CLA on human T-cells, we examined the ability of 4-F-GlcNAc-treated (0.05, 0.1, 0.5 mM for 30 hrs) CLA-+ T-cells cultures to engage with immobilized E- and P-selectin chimera in the parallel-plate flow chamber. As described for flow cytometric analyses (Example 13), cells were first pretreated with neuraminidase to remove terminal sialic acid residues required for HECA-452 reactivity and for E- and P-selectin ligand activity of CLA. This approach allowed for the assessment on de novo synthesized CLA molecules.
(§2) Tethering and rolling of human T-cells on recombinant human E- and P-selectin-Ig chimera (provided by Dr. Robert Fuhlbrigge, Harvard Medical School) and human L-selectin-Ig (gift from Dr. Ray Camphausen, Wyeth/Genetics Institute, Inc., Cambridge, Mass.) were analyzed in the parallel-plate flow chamber under physiologic shear stress conditions (3). To prepare E- and P-selectin-Ig chimera spots, protein A (300 μg/15 μl 0.1M NaHCO3) was adsorbed to Ten-twenty-nine™ Petri dishes for 2 h at 37° C. Human serum albumin ([…] PBS) then added and incubated for 2 h at 37° C. to block non-specific binding sites. E-selectin-Ig (50 ng/50 μl PBS) or P-selectin-Ig (50 ng/50 μl PBS) solutions was pipetted directly over the pre-existing protein A spots for 18 h at 4° C. To prepare L-selectin-Ig spots, L-selectin-Ig (300 ng/15 μl PBS) or isotype control human IgG (300 ng/15 μl) were adsorbed directly to plastic (non-protein A-coated) for 18 h at 4° C. and blocked in 100% FBS for 2 h at 4° C.
(§3) CLA^+ T-cells or freshly isolated PBL were treated with neuraminidase and metabolic glycosylation inhibitors or with protease (bromelain) as described above, washed twice in HBSS, suspended at 2×10^6/ml in HBSS/10 mM HEPES/2 mM CaCl2 (H/H/Ca^++) and infused into the chamber over selectin chimeras. Protease treatment was performed to control for residual E-selectin activity not attributable to the expression of CLA on a protein scaffold. Cell tethering was permitted at 0.6 dynes/cm^2 for 1 min, then stepwise increments in shear stress every 15 sec were employed to a final shear stress level of 60 dynes/cm^2. The number of cells rolling/viewing field (at 100× magnification) was quantified at each level of shear stress in triplicates for a minimum of three experiments. […] Negative control experiments were performed in parallel, wherein cell binding was examined in H/H adhesion assay medium containing 5 mM EDTA as well as assaying cell binding to human IgG isotype control.
(§4) Utilizing the parallel-plate flow chamber under physiologic shear stress conditions, E-, P- and L-selectin ligand activities of human CLA^+ T-cells treated were analyzed in an identical manner as cells prepared for Western blotting and autoradiography studies.

[2] = test system: E-selectin ligand activity of CLA+ T-lymphocytes; assay: Parallel-plate flow chamber, CLA+ T-cell tethering and rolling on E-selectin chimera; format: cell-based, human; settings: 0.1% for 1 h at 37° C.
Method: as §1, §2, §3, §4

[3] = test system: L-selectin ligand activity of human CLA+ T-cells; assay: Parallel-plate flow chamber, CLA+ T-cell rolling on L-selectin chimera; format: cell-based; settings: 0.1% for 1 h at 37° C.
Method: as §2, §3, §4

Substance: bromelain
- HECA-452 expression by flow cytometry (HECA-452 epitopes): relatively unchanged
- P-selectin ligand activity [1]: completely eliminated
- remaining E-selectin ligand activity [2]: < 25 % of control
- L-selectin ligand activity [3]: completely eliminated
